The text below walks through data of patent US20230050846A1, “TREATMENT OF HEPATIC AND CARDIOVASCULAR DISORDERS” (LIFESEARCH, priority 2019, published 2023).

Peptide text beside a SMILES is read from it. * marks the point of attachment. Palmitoyl = CCCCCCCCCCCCCCCC(=O)*

Series [1] is described as follows: Stability in PBS (LC-HRMS). The format is physicochemical. The following applies: 4° C. and 37° C., 4 weeks. How it is done: Peptide of Formula (I) or peptide of Formula (II) were prepared at a concentration of 200 μg/mL in PBS or mixed with EDTA plasma or serum from human (Etablissement Frangais du Sang, EFS) or mouse (C57BL/6J, cardiac puncture). Aliquots from PBS samples (40 μL) were incubated at 4° C. or 37° C. for 0, 1, 2 and 4 weeks. Aliquots from plasma and serum samples (50 μL) were incubated at 4° C. or 37° C. for 0, 1, 2, 4, 6, 12, 24 h.
A mixed solution of peptides of formula (I) and (II) was constituted and serially diluted in PBS to obtain seven standard solutions, ranging from 200 μg/mL to 0.2 μg/mL. In parallel, a mixed solution of labelled peptides of Formula (I) and (II) (Thermo Scientific, Biopolymers Darmstadt, Germany) was prepared in PBS at 100 μg/mL. The mixed solution of labelled peptides (25 μL) was added to 25 μL of standard solutions as well as to PBS, plasma and serum samples. Acetonitrile (150 μL) was added to each sample to precipitate plasma/serum proteins. […] Peptides were analyzed according to their major exact m/z (i 5 ppm, Table 1) and each peptide signal was normalized with that of its labelled internal standard. Peptide concentrations were calculated using calibration curves plotted from standard solutions (linear regression, 1/x weighted, origin excluded).

The subject of series [2] is C57B/L6J mice fed western-diet. The experiment in a line: Western diet-induced hepatic steatosis mouse model. In kind it is in vivo. Particulars: ip daily 1 mg/kg/day. The procedure: Wild-type C57B/L6J male mice were purchased from Janvier Labs (Le Genest Saint Isle, France). Mice were caged in animal rooms under specific pathogen free conditions at the animal facility of Rangueil (Anexplo platform, US006, Toulouse, France) with a light/dark schedule of 12 h/12 h. At the initiation of the dietary intervention, all animals were 8 weeks old and were fed ad libitum with a normal chow diet (#V1535 R/M-H, Ssniff, Germany). All animal experimental procedures were conducted in accordance with institutional guidelines on animal experimentation approved by the local ethical committee of animal care and are conformed to the guidelines from Directive 2010/63/EU of the European Parliament on the protection of animals used for scientific purposes or the NIH guideline.
8 weeks old mice were fed fed western-diet for 4-weeks (Envigo #TD.88137 containing 0.2% cholesterol, 42% kcal from fat, 34% sucrose by weight). For the 2 last weeks of the 4-week period, mice were daily intraperitoneally administrated at 1 mg/kg/day with the peptide of formula (I) or PBS (control group). Following the treatment period, mice were fasted overnight, anesthetized by intra-peritoneal injection of ketamine and xylazine hydrochloride then killed by exsanguination. Body weight, liver triglyceride content, plasma lipids and transaminases were determined at sacrifice.
100 mg of liver tissue were homogenized in 900 μL of phosphate buffer pH 7.4 until complete tissue lysis. Lipids were extracted by mixing 125 μL of lysates with 1 mL of CHCl3:MeOH (2:1). After centrifugation, the chloroform phase was evaporated under nitrogen flux, and the dried residue was solubilized in 200 μL of isopropanol. Triglycerides were measured using commercial kits based on GPO-PAP detection method (Biolabo SA, Maizy, France). Results were expressed as mg of triglycerides/g liver.
Triglycerides and cholesterol levels were determined using commercial colorimetric kits (Biolabo SA, Maizy, France) based on CHOD-PAP and GPO-PAP detection methods, coupling enzymatic reaction and spectrophotometric detection of reaction end products. Alanine-aminotransferase (ALT) and aspartate-aminotransferase (AST) levels were determined using a COBAS-MIRA+ biochemical analyser (Anexplo facility, Toulouse, France).
Blood glucose levels were measured by tail vein sampling with portable glucometer (Accu-check, Roche) 30 min before oral glucose load and at 0, 15, 30, 45, 60, 90 and 120 min after oral glucose load. Plasma insulin concentration was determined 30 min before and 15 min after glucose loading in 5 μL of plasma using an ELISA kit (Mercodia, Uppsala, Sweden) according to the manufacturer's instructions.

For “Ac-RGAGSIREAGGAFGKREQAEEERYFRAQSRE-NH2 [peptide of formula (I), CH3CO-[SEQ ID NO: 1]-NH2]”, the “stability in PBS” value in series [1] was “stable”.
Consider `CCCCCCCCCCCCCCCC(=O)NCCCC[C@H](NC(=O)[C@H](CCC(=O)O)NC(=O)[C@H](CCCNC(=N)N)NC(=O)[C@H](CO)NC(=O)[C@H](CCC(N)=O)NC(=O)[C@H](C)NC(=O)[C@H](CCCNC(=N)N)NC(=O)[C@H](Cc1ccccc1)NC(=O)[C@H](Cc1ccc(O)cc1)NC(=O)[C@H](CCCNC(=N)N)NC(=O)[C@H](CCC(=O)O)NC(=O)[C@H](CCC(=O)O)NC(=O)[C@H](CCC(=O)O)NC(=O)[C@H](C)NC(=O)[C@H](CCC(N)=O)NC(=O)[C@H](CCC(=O)O)NC(=O)[C@H](CCCNC(=N)N)NC(=O)[C@H](CCCCN)NC(=O)CNC(=O)[C@H](Cc1ccccc1)NC(=O)[C@H](C)NC(=O)CNC(=O)CNC(=O)[C@H](C)NC(=O)[C@H](CCC(=O)O)NC(=O)[C@H](CCCNC(=N)N)NC(=O)[C@@H](NC(=O)[C@H](CO)NC(=O)CNC(=O)[C@H](C)NC(=O)CNC(=O)[C@H](CCCNC(=N)N)NC(C)=O)[C@@H](C)CC)C(N)=O` [peptide of formula (II), CH3CO-[SEQ ID NO: 1]-K-[palmitoyl]-NH2] (Ac-RGAGSIREAGGAFGKREQAEEERYFRAQSREK(Palmitoyl)-NH2), for which the “stability in PBS” value in series [1] is given as “stable”. Moreover, in series [2] (OGTT 10 days after initiation), the “oral glucose tolerance (OGTT)” value was “improved”. The basal insulin level result in series [2] (p<0.05 vs PBS) is listed as “decreased”. For the same molecule, in series [2] (two weeks), the “plasma HDL-cholesterol (HDL-C) level” value is listed as “no effect” and the plasma triglycerides level entry is reported as “no effect”. The liver/body weight ratio result in series [2] (two weeks, p<0.01 vs PBS) is on record as “decrease”. Also, in series [2] (two weeks, p<0.05 vs PBS), the hepatic triglyceride concentration result is listed as “reduction”, the “plasma ALT level” value was “significantly reduced” and the “plasma level of total cholesterol” value is listed as “significantly decrease”. Besides, the hepatic steatosis entry in series [2] (two weeks, vs PBS) is recorded as “significantly reduced”.
